In brackets after ≈: the same amount, converted by molar mass. Activity calls are given as the source filed them. The calls are words filed in the database; no cut-off is given here.

In experiment [1] the test system is Escherichia coli. In words: Antibacterial activity against Escherichia coli incubated overnight by disk diffusion method. Format: functional, organism-based. On the technique in general: Agar diffusion results depend on both activity and mobility in agar.
The test system of experiment [2] is Enterococcus faecium. In words: Antibacterial activity against Enterococcus faecium incubated overnight by disk diffusion method. It is filed as functional, organism-based.
Experiment [3] relates to Enterococcus faecalis. The experiment can be described thus: Antibacterial activity against Enterococcus faecalis incubated overnight by disk diffusion method. It is filed as functional, organism-based.
For experiment [4], the system named is Staphylococcus aureus. The experiment can be described thus: Antibacterial activity against Staphylococcus aureus incubated overnight by disk diffusion method. It is filed as functional, organism-based.
Experiment [5] concerns Streptococcus pneumoniae. In words: Antibacterial activity against Streptococcus pneumoniae R6 incubated overnight by disk diffusion method. It is filed as functional.
The target of experiment [6] is T1, Glutamate racemase (Streptococcus pneumoniae serotype 2 (strain D39 / NCTC 7466), UniProt Q04IS7).
T1 sequence (Q04IS7 whole entry): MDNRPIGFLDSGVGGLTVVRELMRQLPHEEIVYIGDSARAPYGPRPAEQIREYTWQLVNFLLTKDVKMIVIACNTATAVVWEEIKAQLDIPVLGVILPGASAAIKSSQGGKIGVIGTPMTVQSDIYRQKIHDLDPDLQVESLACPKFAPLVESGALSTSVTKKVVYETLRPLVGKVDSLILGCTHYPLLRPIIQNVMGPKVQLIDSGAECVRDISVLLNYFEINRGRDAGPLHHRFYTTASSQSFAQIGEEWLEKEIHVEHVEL
In words: Inhibition of Streptococcus pneumoniae glutamate racemase.

For experiment [7], the system named is Streptococcus pneumoniae. In words: Antibacterial activity against Streptococcus pneumoniae. Format: functional.
The test system of experiment [8] is Streptococcus pneumoniae. In words: Antibacterial activity against Streptococcus pneumoniae R6 at 0.5 to 3 mg/ml incubated overnight by disk diffusion method. Format: functional, organism-based.
The subject of experiment [9] is Streptococcus pneumoniae. In words: Ratio of MIC for Streptococcus pneumoniae to IC50 for Streptococcus pneumoniae glutamate racemase.

What is called MIC is the lowest concentration found to suppress growth. A low value points to inhibition by little substance. In the case of `O=C(CC(NCCc1c[nH]c2ccccc12)C(=O)O)c1ccc(Br)cc1` (stereo not given), the outcome in [1], in experiment [2], in experiment [3] and in [4] was inactive. The MIC in [5] worked out at 1000 µg/mL (≈ 2410 µM).
For orientation: IC50 means the concentration at which inhibition is half-maximal. A high value points to a need for much substance. In turn, `N[C@H](C[C@H](C(=O)O)c1cccc(-c2ccco2)c1)C(=O)O` gave an IC50 in experiment [6] of 1730 nM. In addition, 0.24 µg/mL (≈ 0.83 µM) was the least that counted as inhibitory in experiment [7] (MIC).
For `O=C(CC(NCCc1c[nH]c2ccccc12)C(=O)O)c1ccc(Cl)cc1` (stereo not given), the result in experiment [1], in experiment [2], in experiment [3], in experiment [4] and in [8] was inactive.
Take `Cc1ccc(C(=O)CC(NCCc2c[nH]c3ccccc23)C(=O)O)cc1` (stereo not given): the result in experiment [1], in experiment [2], in experiment [3] and in experiment [4] was inactive. The same compound returned an MIC in [5] of 1000 µg/mL (≈ 2850 µM).
`N[C@H](C[C@H](C(=O)O)c1ccc(NC(=O)Nc2ccccc2)cc1)C(=O)O`: in experiment [9], the Ratio was 100. The compound further showed an IC50 in experiment [6] of 1370 nM. Besides, in experiment [7], 16 µg/mL (≈ 44.8 µM) was the least that counted as inhibitory (MIC).
Turning to `O=C(CC(NCCc1c[nH]c2ccccc12)C(=O)O)c1ccc(F)cc1` (stereo not given), the result in [1], in experiment [2], in experiment [3] and in experiment [4] was inactive. For the same compound, in experiment [5], the MIC amounted to 1000 µg/mL (≈ 2820 µM).

The record behind these values is ChEMBL document CHEMBL3045050, “A ligand-based approach for enhancing the pharmacokinetic profile of highly charged antibacterial agents” (Med Chem Res, 2012).
